Test results reported in PMC10415136, “Reverse transcriptases prime DNA synthesis” (Nucleic Acids Research, 2023).

Key:
[1] = biological target: T1, LlLtrA RT domain (Lactococcus cremoris, UniProt P0A3U0); assay: gel-based primase assay; format: biochemical; details: RNA template (oMZ27), gamma-phosphate FAM-labelled GTP, Mn2+
T1 construct: gene ltrA; RT domain aa 1-472, endonuclease domain removed; recombinant from E. coli; catalytic D308, D309
T1 sequence (P0A3U0 1-472): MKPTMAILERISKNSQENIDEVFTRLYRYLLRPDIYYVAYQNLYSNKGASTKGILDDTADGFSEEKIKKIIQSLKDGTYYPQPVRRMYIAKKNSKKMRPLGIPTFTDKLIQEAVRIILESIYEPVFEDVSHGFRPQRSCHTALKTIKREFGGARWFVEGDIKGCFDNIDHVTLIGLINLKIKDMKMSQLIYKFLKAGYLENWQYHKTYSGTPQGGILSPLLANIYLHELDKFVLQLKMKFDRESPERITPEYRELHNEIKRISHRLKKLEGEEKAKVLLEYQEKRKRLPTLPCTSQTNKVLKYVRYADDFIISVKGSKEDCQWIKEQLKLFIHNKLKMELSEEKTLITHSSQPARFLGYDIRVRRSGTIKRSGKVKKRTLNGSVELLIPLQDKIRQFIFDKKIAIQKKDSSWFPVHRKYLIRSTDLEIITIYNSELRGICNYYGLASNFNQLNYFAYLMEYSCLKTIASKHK

[2] = biological target: T2, ScTy3 RT (Saccharomyces cerevisiae, UniProt Q99315); assay: gel-based primase assay; format: biochemical; details: DNA or RNA template, gamma-phosphate FAM-labelled GTP, Mn2+
T2 construct: gene TY3B-G; RT domain aa 1-339 of the mature RT from Ty3 Gag-Pol polyprotein, C-terminal MBP fusion; recombinant from E. coli
T2 sequence (Q99315 536-874): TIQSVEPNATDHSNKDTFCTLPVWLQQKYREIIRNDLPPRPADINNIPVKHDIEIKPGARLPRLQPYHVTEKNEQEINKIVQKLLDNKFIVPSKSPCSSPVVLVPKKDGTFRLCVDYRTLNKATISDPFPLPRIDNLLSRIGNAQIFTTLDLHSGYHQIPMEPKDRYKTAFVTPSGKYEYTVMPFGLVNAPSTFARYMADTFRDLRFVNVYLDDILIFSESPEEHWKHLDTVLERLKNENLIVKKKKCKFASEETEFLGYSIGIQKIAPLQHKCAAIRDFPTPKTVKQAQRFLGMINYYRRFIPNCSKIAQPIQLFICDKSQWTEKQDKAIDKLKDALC

Nc1nc2c(ncn2[C@H]2C[C@H](O)[C@@H](COP(=O)(O)OP(=O)(O)OP(=O)(O)O)O2)c(=O)[nH]1 [dGTP]
gel-based primase assay [1]: LlLtrA RT is an RNA-dependent primase | gel-based primase assay [2]: ScTy3 RT is efficient DNA and RNA-dependent primase
